Assay results as given in the supplement of paper PMC11962398.

Experiments:
BI-2493 [1] = compound: T1, C[C@H]1CNCCN1c1nccc(-c2noc3c2CCC[C@@]32CCCc3sc(N)c(C#N)c32)n1 [BI-2493]; test: 1 - AUC of viability dose-response curve (sensitivity) (fraction); higher = more sensitive; details: 5 days
Procedure: (§1)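 PRISM pooled barcoded cancer cell line viability screen (Broad Institute) with BI-2493 at 8 doses in threefold dilutions from 0.00457 to 10 µmol/L, 5-day treatment; curves fitted per cell line. IC50 is undefined (placeholder) for resistant lines. AUC is capped at 1, and sensitivity is reported as 1 − AUC.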

BI-2493 [2] = compound: T1, BI-2493; details: 5 days
Procedure: as §1

Test System | 1 - AUC of viability dose-response curve (BI-2493 [1]) | IC50 of cell viability (BI-2493 [2]) [µM]
UMUC1_URINARY_TRACT | 0.226 | 2.29
UMUC5_URINARY_TRACT | 0.0622 | 7.6
UMUC7_URINARY_TRACT | 0.14 | > 10
UMUC10_URINARY_TRACT | 0.0119 | 9.49
UMUC11_URINARY_TRACT | 0.101 | 6.87
UO31_KIDNEY | 0.0602 | 9.54
UPCISCC072_UPPER_AERODIGESTIVE_TRACT | 0.0294 | 8.57
UPCISCC111_UPPER_AERODIGESTIVE_TRACT | 0.158 | 4.12
UPCISCC116_UPPER_AERODIGESTIVE_TRACT | 0.118 | 5.74
UW228_CENTRAL_NERVOUS_SYSTEM | 0.0946 | 4.79
VAESBJ_SOFT_TISSUE | 0.00971 | 9.61
VAL_HAEMATOPOIETIC_AND_LYMPHOID_TISSUE | 0.136 | 3.46
VMCUB1_URINARY_TRACT | 0.15 | 3.76
VMRCRCW_KIDNEY | 0.0854 | 5.59
VMRCRCZ_KIDNEY | 0.0774 | 6.92
WAOSEL_HAEMATOPOIETIC_AND_LYMPHOID_TISSUE | 0.00836 | 9.74

Test System | 1 - AUC of viability dose-response curve (BI-2493 [1]) | IC50 of cell viability (BI-2493 [2]) [µM]
WERIRB1_AUTONOMIC_GANGLIA | 0.052 | 9.33
WM88_SKIN | 0.0214 | 8.79
WM793_SKIN | 0.0739 | 5.47
WM983B_SKIN | 0.038 | 7.98
WM2664_SKIN | 0.0151 | 9.22
WSUDLCL2_HAEMATOPOIETIC_AND_LYMPHOID_TISSUE | 0.156 | 4.99
YAPC_PANCREAS | 0.287 | 2.97
YD8_UPPER_AERODIGESTIVE_TRACT | 0.0906 | > 10
YD10B_UPPER_AERODIGESTIVE_TRACT | 0.0787 | 5.08
YD15_SALIVARY_GLAND | 0.0555 | 6.99
YD38_UPPER_AERODIGESTIVE_TRACT | 0.088 | 6.6
YH13_CENTRAL_NERVOUS_SYSTEM | 0.0914 | > 10
YKG1_CENTRAL_NERVOUS_SYSTEM | 0.0786 | 9.17
YSCCC_BILIARY_TRACT | 0.104 | 5.65
ZR751_BREAST | 0.1 | 4.57
